{
  "source": "patent US20230266321A1",
  "about": "“LIVE CELL ENGAGEMENT ASSAY” (Icahn School of Medicine at Mount Sinai, priority 2020, published 2023)",
  "key": {"BRAF-MEK1 complex": {"target": "BRAF-MEK1 complex (Homo sapiens, UniProt Q02750)", "settings": "HCT116 cells, 200 nM, 1 hour"}, "[1]": {"system": "luciferase-tagged human KSR1, KSR2, ARAF, BRAF, and CRAF/RAF1", "experiment": "RAF family tram-bo buildup curves (NanoBRET)", "assay_type": "cell-based", "settings": "BRET buildup curves with increasing tracer concentrations", "description": "Human c-terminal NanoLuc fusions versions of ARAF (Uniprot P10398), BRAF (UniProt P15056), CRAF (Uniprot P04049), KSR1 (Uniprot Q8IVT5), and KSR2 (Uniprot Q6VAB6) were transfected as mentioned above at a concentration of 0.1 µg/mL in combination with 9.9 µg/mL of carrier DNA. All RAF constructs from Promega. […] A 20x tram-bo solution was added to each well to give final concentrations of 4, 1, 0.5, 0.1, 0.05, 0.01, 0.001, 0.0001 µM. […] All data were analyzed using Prism 8 (GraphPad)."}, "MEK-NL": {"target": "T1, MEK-NL (Homo sapiens, UniProt Q02750)", "T1 construct": "expressed in transfected cells; host or cells: HEK293T", "experiment": "Tracer buildup curves on MEK-NLuc (NanoBRET)", "assay_type": "cell-based", "settings": "HEK293T cells, 2 hrs at 37° C.; read-out: binding affinity to MEK-NL (tracer buildup curves)", "description": "(v) Tram-bo and PD-bo buildup curves measure on MEK-NLuc. A human C-terminal NanoLuc fusion of MEK was transfected as mentioned above at a concentration of […] in combination with […] of carrier DNA. […] A 20x solution was added to each well to give final concentrations of 2, 1, 0.5, 0.1, 0.05, 0.01, 0.001, 0.0001 mM for PD-bo, and 1, 0.1, 0.05, 0.01, 0.005, 0.001, 0.0001, 0.00001 for Tram-bo. […] All data were analyzed using Prism 8 (GraphPad)"}, "KSR1-MEK1 complex": {"target": "KSR1-MEK1 complex (UniProt Q02750+Q61097, P775N)", "settings": "HCT116 cells, 200 nM, 1 hour"}, "MEK1-luc": {"target": "MEK1-luc (Homo sapiens, UniProt Q02750)", "experiment": "NanoBRET washout / intracellular residence time on MEK1-luc", "settings": "cells pre-treated with MEKi, washed, 1 µM tram-bo added"}, "[2]": {"target": "T2, mouse KSR1-luc (KSR-bound MEK) (UniProt Q02750+Q61097)", "T2 construct": "expressed in transfected cells; host or cells: HEK293T", "experiment": "NanoBRET in-cell steady-state competition with tram-bo on KSR1-luc", "assay_type": "cell-based"}, "KRAS-G12S A549 cells": {"system": "KRAS-G12S A549 cells", "experiment": "Long-term clonogenic assay", "assay_type": "cell-based, human", "settings": "10 nM final concentration, in comparison to amide-linker compounds (eg. 1, 3)", "description": "Cells were plated at a density of 6,000 cells per well in 6-well plates in 3 mL of culture medium. Twenty-four hours after seeding, compounds dissolved in DMSO or DMSO-only vehicles were added directly to the culture media at a 1:1000 dilution. Following 10 days of culture, cells were washed 2x in PBS, fixed in ice-cold methanol for 10 minutes, stained with crystal-violet at room temperature for 10 minutes, and subsequently washed three times in water. Plates were allowed to dry overnight before imagining with an Epson V600 scanner."}, "[3]": {"system": "MEK1 and MEK2 (kinase panel incl. BRAF, CRAF)", "experiment": "In vitro kinase profiling, direct binding assays", "settings": "1 µM"}, "HCT116 cells": {"system": "HCT116 cells", "experiment": "Cell proliferation/viability assay under low-adherence conditions", "assay_type": "cell-based, human", "description": "A375, A549, HCT116, and SKMEL-239 cells were plated in Corning Costar Ultra-Low Attachment 96-well plates (Reference number 3434). After 24 hours of incubation at 37° C., cells were treated with inhibitors (0.1% DMSO in final volume). Cells were grown for five days, and resazurin sodium salt was added at a final concentration of 0.01 µg/µL. Fluorescence was measured using a Molecular Devices SpectraMax M5 spectrophotometer after a 4-24-hour incubation with resazurin solution. Technical triplicate values were averaged for each experiment, and biological replicate values are represented as average +/- standard deviation. For each cell line, logEC50 values of inhibitors were statistically compared using the extra sum-of-squares F test in GraphPad Prism 8 (FIGS. 57, 58, 67, 68, 69)."}, "[4]": {"system": "MEK1, MEK2 and upstream kinases BRAF, CRAF", "experiment": "In vitro kinase profiling, substrate phosphorylation assays", "assay_type": "biochemical", "settings": "incl. BRAF and CRAF phosphorylation of MEK1 as substrate"}, "[5]": {"system": "phosphorylated ERK1/2 (T202/Y204)", "experiment": "Immunoblot of RAS/ERK pathway inhibition", "assay_type": "cell-based, human", "settings": "1 hour, increasing concentrations, relative to trametinib", "description": "Cells were plated at a density of 300,000 cells per well in 6-well plates in 2 mL of culture medium. 24 hours after seeding, cells were treated with compounds or DMSO at a 1:1000 dilution (0.1 % DMSO in final volume). […] Samples were normalized to a protein content of 5 µg/µL in 100 µL total volume, and 20 µL of 6x SDS was added. […] Transfers were confirmed using ponceau red, washed, and then blocked for 1 hour with 5% BSA TBS-T, prior to overnight incubation with primary antibodies including phospho-ERK1/2 T202/Y204 and total ERK1/2 (Cell Signaling Technologies (CST) 9101S and 4695S, respectively) in 5% BSA TBS-T. The next day, blots were washed extensively, and incubated in secondary antibody (Anti-Rabbit IgG HRP-Linked CST 7074S)."}, "[6]": {"settings": "HCT116, low-adherence conditions"}},
  "data": [
    {"smiles": "CNS(=O)(=O)Nc1nccc(Cc2c(C)c3ccc(Oc4ncccn4)cc3oc2=O)c1F", "note": "[CH5126766, reference compound]", "values": [
      {"measurement": "effect on BRAF pulled down via endogenous MEK1 (co-IP)", "setting": "BRAF-MEK1 complex", "result": "enhances interactions between endogenous BRAF and MEK1"}
    ]},
    {"smiles": "Cc1c(=O)n(C)c(Nc2ccc(I)cc2F)c2c(=O)n(C3CC3)c(=O)n(-c3cccc(NC(=O)CCOCCOCCNC(=O)CCC4=[N+]5C(=Cc6ccc(-c7ccc[nH]7)n6[B-]5(F)F)C=C4)c3)c12", "note": "[Tram-bo]", "values": [
      {"measurement": "tighter binding on KSR1-luc and KSR2-luc relative to ARAF-luc, BRAF-luc, and CRAF-luc", "setting": "[1]", "result": "~ 10 fold"},
      {"measurement": "EC50", "setting": "MEK-NL", "result": 4.7, "unit": "nM"}
    ]},
    {"smiles": "O=C(c1ccc(F)c(F)c1Nc1ccc(I)cc1F)N1CC(O)([C@@H]2CCCCN2)C1", "note": "[cobimetinib]", "values": [
      {"measurement": "effect on complex stability of K1 (KSR1 P775N) and B2 (BRAF R662A) mutants with MEK (co-IP)", "setting": "KSR1-MEK1 complex", "result": "did not alter complex stability"},
      {"measurement": "dissociation kinetics after washout on MEK1-luc", "setting": "MEK1-luc", "result": "dissociated more readily"},
      {"measurement": "IC50", "setting": "[2]; HEK293T cells, 1 µM tram-bo tracer, equilibrium binding, mean ± s.e.m., read-out: steady-state IC50 against KSR1-luc", "result": "5.1 ± 0.7", "unit": "nM"},
      {"measurement": "difference in potency between KSR1-luc and MEK1-luc", "setting": "[2]; IC50 MEK1-luc vs KSR1-luc", "result": "~20", "unit": "fold"}
    ]},
    {"smiles": "Cc1c(=O)n(C)c(Nc2ccc(I)cc2F)c2c(=O)n(C3CC3)c(=O)n(-c3cccc(NS(=O)(=O)NC4CC4)c3)c12", "note": "[compound 5]", "values": [
      {"measurement": "growth inhibition in long-term clonogenic assay", "setting": "KRAS-G12S A549 cells", "result": "enhanced and durable growth inhibition"}
    ]},
    {"smiles": "CCN(C)S(=O)(=O)Nc1cccc(-n2c(=O)n(C3CC3)c(=O)c3c(Nc4ccc(I)cc4F)n(C)c(=O)c(C)c32)c1", "note": "[compound 6]", "values": [
      {"measurement": "growth inhibition in long-term clonogenic assay", "setting": "KRAS-G12S A549 cells", "result": "enhanced and durable growth inhibition"}
    ]},
    {"smiles": "CNS(=O)(=O)Nc1cccc(-n2c(=O)n(C3CC3)c(=O)c3c(Nc4ccc(I)cc4F)n(C)c(=O)c(C)c32)c1", "note": "[trametiglue]", "values": [
      {"measurement": "direct interaction with isolated BRAF or CRAF in binding experiments", "setting": "[3]", "result": "no direct interactions towards isolated BRAF or CRAF"},
      {"measurement": "selectivity in direct binding assays", "setting": "[3]", "result": "strong selectivity towards MEK1 and MEK2"},
      {"measurement": "improvement in potency relative to CH5126766", "setting": "HCT116 cells; [6]", "result": "~200", "unit": "fold"},
      {"measurement": "improvement in potency relative to trametinib", "setting": "HCT116 cells; [6]", "result": "approximately 7 fold"},
      {"measurement": "IC50", "setting": "HCT116 cells; low-adherence conditions, five days, resazurin, read-out: IC50 in the cell line HCT116", "result": "0.07 ± 0.04", "unit": "nM"},
      {"measurement": "effect on BRAF pulled down via endogenous MEK1 (co-IP)", "setting": "BRAF-MEK1 complex", "result": "markedly enhanced capture of BRAF"},
      {"measurement": "growth inhibition in long-term clonogenic assay", "setting": "KRAS-G12S A549 cells", "result": "enhanced and durable growth inhibition"},
      {"measurement": "inhibition in substrate phosphorylation assays", "setting": "[4]", "result": "not only inhibited MEK1 and MEK2, but also upstream kinases"},
      {"measurement": "potency and off-rate kinetics in cellular target engagement assays", "setting": "[2]; KSR-luc or MEK-luc reporters, residence time at 6.25 nM", "result": "retained similar potency and off-rate kinetics as trametinib"},
      {"measurement": "inhibition of RAS-MAPK signaling as measured by pERK", "setting": "[5]", "result": "higher potency inhibitor of RAS-MAPK signaling"}
    ]}
  ]
}
